From patent US20230129438A1, “IMMUNOMODULATING IMINE-OXAZOLINE AZALIDES” (Zoetis Services LLC, priority 2020, published 2023)
Marks after values point to notes of the source that are not given here.

Tests used:
Format in all cases: cell-based
[1] = tested on: BRD pathogens, M. haemolytica and P. multocida; test: In-vitro MIC model, BRD pathogen screening panel; conditions: asterisk = at least one BRD bacterial isolate
TNF-α = test: Bovine whole blood assay, LPS-induced TNF-α; conditions: LPS 1 μg/mL
Experimental: (§1) (protected from light) for 30 minutes.

IL-1β = test: Bovine whole blood assay, IL-1β; conditions: drug concentration giving overstimulation of IL-1β over LPS (cellular toxicity signal)
Experimental: as §1

| Compound | MIC flag on Ex# (Table A) [1] | IC50 (TNF-α) | IL-Iβ OS of LPS (IL-1β) | MIC flag on Ex# (Table C) [1] |
| --- | --- | --- | --- | --- |
| CCCNC[C@]1(O)[C@H](C)O[C@@H](O[C@H]2[C@H](C)[C@@H](O[C@@H]3O[C@H](C)C[C@H]4[C@H]3OC(=Nc3ccccc3)N4Cc3ccccc3)[C@](C)(O)C[C@@H](C)CN[C@H](C)[C@@H](O)[C@](C)(O)[C@@H](CC)OC(=O)[C@@H]2C)C[C@@]1(C)OC (mixture of isomers) [Example A-33, (E/Z)-(2R,3S,4R,5R,8R,10R,11R,12S,13S,14R)-11-(((3aR,4S,6R,7aS)-1-benzyl-6-methyl-2-(phenylimino)hexahydro-2H-pyrano[4,3-d]oxazol-4-yl)oxy)-2-ethyl-3,4,10-trihydroxy-13-(((2R,4R,5S,6S)-5-hydroxy-4-methoxy-4,6-dimethyl-5-((propylamino)methyl)tetrahydro-2H-pyran-2-yl)oxy)-3,5,8,10,12,14-hexamethyl-1-oxa-6-azacyclopentadecan-15-one] | A-33* (an MIC ≤ 64 μg/mL for at least one BRD bacterial isolate) | 8 µM | 2 µM | – |
| CC[C@H]1OC(=O)[C@H](C)[C@@H](O[C@H]2C[C@@](C)(OC)[C@@H](O)[C@H](C)O2)[C@H](C)[C@@H](O[C@@H]2O[C@H](C)C[C@H]3[C@H]2OC(=Nc2ccc(OC)cc2)N3C)[C@](C)(O)C[C@@H](C)CN[C@H](C)[C@@H](O)[C@]1(C)O (mixture of isomers) [Example C-3, (E/Z)-(2R,3S,4R,5R,8R,10R,11R,12S,13S,14R)-2-ethyl-3,4,10-trihydroxy-13-(((2R,4R,5S,6S)-5-hydroxy-4-methoxy-4,6-dimethyltetrahydro-2H-pyran-2-yl)oxy)-11-(((3aR,4S,6R,7aS)-2-((4-methoxyphenyl)imino)-1,6-dimethylhexahydro-2H-pyrano[4,3-d]oxazol-4-yl)oxy)-3,5,8,10,12,14-hexamethyl-1-oxa-6-azacyclopentadecan-15-one] | – | – | – | C-3* (MIC ≤ 64 μg/mL for at least one BRD bacterial isolate) |
| CC[C@H]1OC(=O)[C@H](C)[C@@H](O[C@H]2C[C@@](C)(OC)[C@@H](O)[C@H](C)O2)[C@H](C)[C@@H](O[C@@H]2O[C@H](C)C[C@H]3[C@H]2OC(=Nc2ccccc2)N3C)[C@](C)(O)C[C@@H](C)CN[C@H](C)[C@@H](O)[C@]1(C)O (mixture of isomers) [Example C-4, (E/Z)-(2R,3S,4R,5R,8R,10R,11R,12S,13S,14R)-11-(((3aR,4S,6R,7aS)-1,6-dimethyl-2-(phenylimino)hexahydro-2H-pyrano[4,3-d]oxazol-4-yl)oxy)-2-ethyl-3,4,10-trihydroxy-13-(((2R,4R,5S,6S)-5-hydroxy-4-methoxy-4,6-dimethyltetrahydro-2H-pyran-2-yl)oxy)-3,5,8,10,12,14-hexamethyl-1-oxa-6-azacyclopentadecan-15-one] | – | – | – | C-4* (MIC ≤ 64 μg/mL for at least one BRD bacterial isolate) |
| (E/Z)-(2R,3S,4R,5R,8R,10R,11R,12S,13S,14R)-2-ethyl-3,4,10-trihydroxy-13-(((2R,4R,5S,6S)-5-hydroxy-4-methoxy-4,6-dimethyltetrahydro-2H-pyran-2-yl)oxy)-11-(((3aR,4S,6R,7aS)-2-((6-methoxypyridin-3-yl)imino)-1,6-dimethylhexahydro-2H-pyrano[4,3-d]oxazol-4-yl)oxy)-3,5,8,10,12,14-hexamethyl-1-oxa-6-azacyclopentadecan-15-one [Example C-2] | – | – | – | C-2* (MIC ≤ 64 μg/mL for at least one BRD bacterial isolate) |
